Values quoted from earlier work in US4650854A, “Amide analogs of calcitonin” (USV Pharmaceutical Corporation, priority 1985, dated 1987).
Where no end group is shown, it is not given here.

Settings: Monikawa et al., Experientia 32(9), 1104-1106 (1976)

Substance: eel calcitonin (CSNLSTCVLGKLSQELHKLQTYPRTDVGAGTP; ends and bridges not checked; cysteine pairing not given here; UniProt P01262 1-32, looked up) [synthetic eel calcitonin, synthetic eel calcitonin, natural 32 amino acid calcitonin peptide]
- hypocalcemic potency: around 4300 Iu/mg

Substance: (1,7-α-L-aminosuberic acid)eel calcitonin
- hypocalcemic potency: about 3400 Iu/mg
